According to patent US20140163012A1, “PYRIDO-/AZEPINO-BENZOFURAN AND PYRIDO-/AZEPINO-BENZOTHIOPHENE MCH-1 ANTAGONISTS, METHODS OF MAKING, AND USE THEREOF” (Albany Molecular Research, Inc., priority 2012, published 2014):
Counter-ions that a name gives are not always drawn.

How the values were obtained:
human MCH-1 receptor = human MCH-1 receptor (Homo sapiens, UniProt Q99705); assay: Binding assay for human melanin-concentrating hormone (MCH-1) receptor, radioligand displacement on CHO-K1 cell membranes; conditions: for inhibition at 1 µM: read-out: MCH1 % inhibition @ 1 uM
Chain of human MCH-1 receptor (Q99705 whole entry): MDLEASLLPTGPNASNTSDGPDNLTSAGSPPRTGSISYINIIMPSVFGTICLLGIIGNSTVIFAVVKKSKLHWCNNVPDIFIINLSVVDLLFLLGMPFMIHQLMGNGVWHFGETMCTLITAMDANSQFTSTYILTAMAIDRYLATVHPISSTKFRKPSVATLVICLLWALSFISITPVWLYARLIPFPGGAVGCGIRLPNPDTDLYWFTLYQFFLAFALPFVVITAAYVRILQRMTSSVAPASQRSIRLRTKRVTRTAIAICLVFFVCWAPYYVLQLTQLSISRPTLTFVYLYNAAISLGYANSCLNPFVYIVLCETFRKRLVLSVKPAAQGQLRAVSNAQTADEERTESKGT

| SMILES | melting point | Ki (human MCH-1 receptor) | inhibition at 1 µM (human MCH-1 receptor) |
| --- | --- | --- | --- |
| Cl.O=c1cc(OCc2ccccc2)ccn1-c1ccc2sc3c(c2c1)CCNC3 [Example 65, 4-Benzyloxy-1-(1,2,3,4-tetrahydrobenzo[4,5]thieno[2,3-c]pyridin-6-yl)pyridin-2(1H)-one hydrochloride] | 170 °C | 360 nM |  |
| Cl.O=c1cc(OCc2ccc(F)cn2)ccn1-c1ccc2sc3c(c2c1)CCNC3 [Example 66, 4-((5-Fluoropyridin-2-yl)methoxy)-1-(1,2,3,4-tetrahydrobenzo[4,5]thieno[2,3-c]pyridin-6-yl)pyridin-2(1H)-one hydrochloride] | 278 to 280 °C |  | 34% |
| Cl.O=c1cc(OCc2ccccc2)ccn1-c1ccc2sc3c(c2c1)CNCC3 [Example 67, 4-Benzyloxy-1-(1,2,3,4-tetrahydrobenzo[4,5]thieno[3,2-c]pyridin-8-yl)pyridin-2(1H)-one hydrochloride] | 245 to 247 °C |  | 31% |
| Cl.O=c1cc(OCc2ccc(F)cn2)ccn1-c1ccc2sc3c(c2c1)CNCC3 [Example 68, 4-(5-Fluoropyridin-2-yl)methoxy-1-(1,2,3,4-tetrahydrobenzo[4,5]thieno[3,2-c]pyridin-8-yl)pyridin-2(1H)-one hydrochloride] | 165 to 167 °C |  | 13% |
| Cl.O=C1CN(CCc2ccc(F)cn2)CCN1c1ccc2c3c(oc2c1)CCNC3 [Example 70, 4-(2-(5-Fluoropyridin-2-yl)ethyl)-1-(1,2,3,4-tetrahydrobenzofuro[3,2-c]pyridin-7-yl)piperazin-2-one hydrochloride] | 203 to 209 °C |  | 66% |
| Cl.O=C1CN(CCc2ccc(Cl)cn2)CCN1c1ccc2c3c(oc2c1)CCNC3 [Example 91, 4-(2-(5-Chloropyridin-2-yl)ethyl)-1-(1,2,3,4-tetrahydrobenzofuro[3,2-c]pyridin-7-yl)piperazin-2-one hydrochloride] | 220 to 223 °C | 84 nM |  |
| Cl.O=c1nc(CCc2ccc(Cl)cn2)ccn1-c1ccc2c3c(oc2c1)CCNC3 [Example 101, 4-(2-(5-Chloropyridin-2-yl)ethyl)-1-(1,2,3,4-tetrahydrobenzofuro[3,2-c]pyridin-7-yl)pyrimidin-2(1H)-one hydrochloride] | 155 to 160 °C | 20 nM |  |
| Cl.O=c1cc(CCc2ccc(Cl)cn2)ccn1-c1ccc2c3c(oc2c1)CCNC3 [Example 105, 4-(2-(5-Chloropyridin-2-yl)ethyl)-1-(1,2,3,4-tetrahydrobenzofuro[3,2-c]pyridin-7-yl)pyridin-2(1H)-one hydrochloride] | 285 to 288 °C | 12 nM |  |
| COc1ccc(-c2ccn(-c3ccc4c5c(oc4c3)CCNC5)c(=O)c2)c(F)c1.Cl [Example 111, 4-(2-Fluoro-4-methoxyphenyl)-1-(1,2,3,4-tetrahydrobenzofuro[3,2-c]pyridin-7-yl)pyridin-2(1H)-one hydrochloride] | 282 to 284 °C | 16 nM |  |
| Cl.O=c1cc(OCc2ccc(C(F)(F)F)nn2)ccn1-c1ccc2c3c(oc2c1)CCNC3 [Example 113, 1-(1,2,3,4-Tetrahydrobenzofuro[3,2-c]pyridin-7-yl)-4-((6-(trifluoromethyl)pyridazin-3-yl)methoxy)pyridin-2(1H)-one hydrochloride] | 289 to 291 °C | 20 nM |  |
| Cc1cc(OC(F)(F)F)ccc1-c1ccn(-c2ccc3c4c(oc3c2)CCNC4)c(=O)c1.Cl [Example 114, 4-(2-Methyl-4-(trifluoromethoxy)phenyl)-1-(1,2,3,4-tetrahydrobenzofuro[3,2-c]pyridin-7-yl)pyridin-2(1H)-one hydrochloride] | 299 to 301 °C | 7.3 nM |  |
| O=c1cc(OCc2ccccc2)ccn1-c1ccc2c3c(sc2c1)CCCNC3 [Example 122, 4-(Benzyloxy)-1-(2,3,4,5-tetrahydro-1H-benzothieno[3,2-c]azepin-8-yl)pyridin-2(1H)-one hydrochloride] |  | 3.3 nM |  |
| O=c1cc(OCc2ccc(Cl)cn2)ccn1-c1ccc2c3c(sc2c1)CCCNC3 [Example 123, 4-((5-Chloropyridin-2-yl)methoxy)-1-(2,3,4,5-tetrahydro-1H-benzothieno[3,2-c]azepin-8-yl)pyridin-2(1H)-one hydrochloride] |  | 2.9 nM |  |
| O=c1cc(CCc2ccc(Cl)cn2)ccn1-c1ccc2c3c(sc2c1)CNCC3 [Example 125, 4-((5-Chloropyridin-2-yl)ethyl)-1-(1,2,3,4-tetrahydrobenzothieno[2,3-c]pyridin-7-yl)pyridin-2(1H)-one hydrochloride] |  | 10 nM |  |
| O=c1cc(CCc2ccccc2)ccn1-c1ccc2c3c(sc2c1)CNCC3 [Example 127, 4-Phenethyl-1-(1,2,3,4-tetrahydrobenzothieno[2,3-c]pyridin-7-yl)pyridin-2(1H)-one hydrochloride] |  | 6.2 nM |  |
| O=c1cc(OCc2ccc(F)cn2)ccn1-c1ccc2c3c(oc2c1)CC1CCC3N1 (stereo not shown) [Example 129, 4-((5-Fluoropyridin-2-yl)methoxy)-1-(7,8,9,10-tetrahydro-6H-7,10-epiminocyclohepta[b]benzofuran-3-yl)pyridin-2(1H)-one hydrochloride] |  | 14 nM |  |

Other lines, results leading:

| melting point | Ki (human MCH-1 receptor) | inhibition at 1 µM (human MCH-1 receptor) | SMILES |
| --- | --- | --- | --- |
| 268 to 269 °C | 36 nM |  | Cl.O=c1cc(OCc2ccc(F)cn2)cnn1-c1ccc2c3c(oc2c1)CCNC3 [Example 50, 5-((5-Fluoropyridin-2-yl)methoxy)-2-(1,2,3,4-tetrahydrobenzofuro[3,2-c]pyridin-7-yl)pyridazin-3(2H)-one hydrochloride] |
| 227 to 233 °C | 145 nM |  | Cc1ccc(COc2ccn(-c3ccc4c5c(oc4c3)CCNC5)c(=O)c2)cn1.Cl [Example 51, 4-((6-Methylpyridin-3-yl)methoxy)-1-(1,2,3,4-tetrahydrobenzofuro[3,2-c]pyridin-7-yl)pyridin-2(1H)-one hydrochloride] |
| 278 to 280 °C | 73 nM |  | Cl.O=c1cc(OCc2ccc(C(F)(F)F)nc2)ccn1-c1ccc2c3c(oc2c1)CCNC3 [Example 52, 1-(1,2,3,4-Tetrahydrobenzofuro[3,2-c]pyridin-7-yl)-4-((6-(trifluoromethyl)pyridin-3-yl)methoxy)pyridin-2(1H)-one hydrochloride] |
| 228 to 230 °C |  | 69% | Cl.O=c1cc(OCc2ccc(F)cn2)ccn1-c1ccc2sc3c(c2c1)CCNCC3 [Example 69, 4-(5-Fluoropyridin-2-yl)methoxy-1-(2,3,4,5-tetrahydro-1H-benzo[4,5]thieno[2,3-d]azepin-9-yl)pyridin-2(1H)-one hydrochloride] |
| > 300 °C | 7.5 nM |  | Cl.O=c1cc(-c2ccc(C(F)(F)F)cc2)ccn1-c1ccc2c3c(oc2c1)CCNC3 [Example 71, 1-(1,2,3,4-Tetrahydrobenzofuro[3,2-c]pyridin-7-yl)-4-(4-(trifluoromethyl)phenyl)pyridin-2(1H)-one hydrochloride] |
| > 300 °C |  | 41% | Cl.O=c1cc(-c2ccc(C(F)(F)F)nn2)ccn1-c1ccc2c3c(oc2c1)CCNC3 [Example 88, 1-(1,2,3,4-Tetrahydrobenzofuro[3,2-c]pyridin-7-yl)-4-(6-(trifluoromethyl)pyridazin-3-yl)pyridin-2(1H)-one hydrochloride] |
| 165 to 169 °C | 29 nM |  | Cl.O=c1cc(CCc2ccc(F)cn2)ccn1-c1ccc2c3c(oc2c1)CCNC3 [Example 102, 4-(2-(5-Fluoropyridin-2-yl)ethyl)-1-(1,2,3,4-tetrahydrobenzofuro[3,2-c]pyridin-7-yl)pyridin-2(1H)-one hydrochloride] |
| 283 to 289 °C | 6.6 nM |  | Cl.O=c1cc(CCc2ccccc2)ccn1-c1ccc2c3c(oc2c1)CCNC3 [Example 104, 4-Phenethyl-1-(1,2,3,4-tetrahydrobenzofuro[3,2-c]pyridin-7-yl)pyridin-2(1H)-one hydrochloride] |
| 294 to 297 °C | 6.9 nM |  | COc1ccc(-c2ccn(-c3ccc4c5c(oc4c3)CCNC5)c(=O)c2)c(Cl)c1.Cl [Example 112, 4-(2-Chloro-4-methoxyphenyl)-1-(1,2,3,4-tetrahydrobenzofuro[3,2-c]pyridin-7-yl)pyridin-2(1H)-one hydrochloride] |
|  | 103 nM |  | O=c1cc(OCc2ccccc2)ccn1-c1ccc2sc3c(c2c1)CCNCC3 [Example 117, 4-(Benzyloxy)-1-(2,3,4,5-tetrahydro-1H-benzo[4,5]thieno[2,3-d]azepin-9-yl)pyridin-2(1H)-one hydrochloride] |
| 176 to 178 °C |  | 7.7% | Cl.O=c1cc(OCc2ccccc2)ccn1-c1ccc2sc3c(c2c1)CNCCC3 [Example 118, 4-Benzyloxy-1-(2,3,4,5-tetrahydro-1H-benzo[4,5]thieno[3,2-c]azepin-9-yl)pyridin-2(1H)-one hydrochloride] |
|  | 44 nM |  | O=C1CN(CCc2ccc(Cl)cn2)CCN1c1ccc2c3c(sc2c1)CNCC3 [Example 121, 4-(2-(5-Chloropyridin-2-yl)ethyl)-1-(1,2,3,4-tetrahydrobenzothieno[2,3-c]pyridin-7-yl)piperazin-2-one hydrochloride] |
|  | 3.7 nM |  | O=c1cc(OCc2ccc(F)cn2)ccn1-c1ccc2c3c(sc2c1)CCCNC3 [Example 124, 4-((5-Fluoropyridin-2-yl)methoxy)-1-(2,3,4,5-tetrahydro-1H-benzothieno[3,2-c]azepin-8-yl)pyridin-2(1H)-one hydrochloride] |
|  | 20 nM |  | O=c1cc(CCc2ccc(F)cn2)ccn1-c1ccc2c3c(sc2c1)CNCC3 [Example 126, 4-((5-Fluoropyridin-2-yl)ethyl)-1-(1,2,3,4-tetrahydrobenzothieno[2,3-c]pyridin-7-yl)pyridin-2(1H)-one hydrochloride] |
|  | 11 nM |  | O=c1cc(OCc2ccccc2)ccn1-c1ccc2c3c(oc2c1)CC1CCC3N1 (stereo not shown) [Example 128, 4-(Benzyloxy)-1-(7,8,9,10-tetrahydro-6H-7,10-epiminocyclohepta[b]benzofuran-3-yl)pyridin-2(1H)-one hydrochloride] |
